# Tested on: K12877-001-R-J1-PDC complex spheroid viability
# Assay: Anticancer human tumor K12877-001-R-J1-PDC patient-derived lung adenocarcinoma cell line growth inhibition [RAS]
# Conditions: for IC50: curve of first compound; for viability, T/C: stronger effect = lower value
# From the text: RAS pathway inhibitors in Combinations in Complex Spheroids
# A high-throughput screen of multi-cell type tumor spheroids was designed to identify active combinations of RAS pathway inhibitors and targeted small molecules. Complex spheroids include a stromal component modeled by human endothelial cells (HUVEC) and fibroblasts modeled by human mesenchymal stem cells (MSCs). The concentration ranges selected for each drug and investigational agent were based upon clinically achievable concentrations if the clinical Cmax of the agent was known.
# Compounds. The drugs and investigational agents: abemaciclib (NSC768073), cobimetinib (NSC768068), divarasib (GDC6063, NSC841802), docetaxel (NSC628503), GDC-1971 (RLY-1971, NSC841576), gemcitabine (NSC613327), inavolisib (NSC800729), ipatasertib (NSC767898), KB-0742 (NSC834161), MRTX-1133 (NSC836407), osimertinib (NSC779217), RMC-4630 (NSC839698), RMC-6236 (NSC851965), RMC-6291 (NSC852671), Ro-3306 (NSC812927), sapanisertib (NSC764658), SN-38 (NSC673596), staurosporine (NSC755774), SY5609 (NSC837396), and tovorafenib (DAY101, NSC766906), were obtained from the National Cancer Institute (NCI) Developmental Therapeutics Program Chemical Repository. The FDA-approved anticancer drug set is available from the NCI Developmental Therapeutics Program. […] The stock solutions were prepared in dimethyl sulfoxide (DMSO, Sigma-Aldrich, St. Louis, MO, cat. D2650) at 800-fold the tested concentration and stored at -70 degrees C prior to their use. All drugs and investigational agents were tested over a range starting from a high concentration at or near the clinical Cmax and decreasing in half-log increments. If the clinical Cmax for an agent had not been determined, the highest concentration tested was 10 microM.
# Cell Culture. All cells were maintained in an incubator at 37 degrees C and 5% CO2 with 95% humidity. The PDC lines were cultured according to standard operating procedures established by the NCI PDMR. All PDCs were thawed and cultured in Matrigel-coated flasks prepared with a working solution of 1X Ham's F-12 nutrient mix, without supplementation (Invitrogen, Waltham, MA, cat. 11765054), 100 U/mL penicillin-streptomycin (Invitrogen, cat. 15140122), and 2.5% Matrigel (Corning Inc., Corning, NY, cat. 354248) for the first three passages. The 362531-283-R-J2-PDC and 782815-120-R-J1-PDC lines were cultured in 6C/Colon 1B media, which includes advanced DMEM/F-12 (Thermo Fisher Scientific, cat. 12634028), 10 mM HEPES (Thermo Fisher Scientific, cat. 15630080), 1X GlutaMAX supplement (Thermo Fisher Scientific, cat. 35050061), 0.1 mg/mL primocin (InvivoGen, San Diego, CA, cat. ant-pm-2), 10% defined fetal bovine serum, heat inactivated (HyClone Laboratories Inc., Logan, UT, cat. SH30070.03HI), 50% L-WRN conditioned media (ATCC, cat. CRL-3276), 1.25 mM N-Acetyl-L-cysteine (Sigma-Aldrich, cat. A9165), 10 mM nicotinamide (Sigma-Aldrich, cat. N0636), 1X B-27 supplement (Thermo Fisher Scientific, cat. 17504044), 1X N-2 supplement (Thermo Fisher Scientific, cat. 17502048), 50 ng/mL human EGF (Thermo Fisher Scientific, cat. PHG0311), and 10 microM Y-27632 dihydrochloride (Tocris Bioscience, cat. 1254). The K12877-001-R-J1-PDC line was cultured in 6I media, which includes all 6C/Colon 1B media plus 10 ng/mL human FGF-10 (PeproTech, cat. 100-26), 1 ng/mL human FGF-2 (PeproTech, cat. 100-18B), 1 µM prostaglandin E2 (Tocris Bioscience, cat. 2296), […] hydrocortisone (Sigma-Aldrich, cat. H4001), and […] bovine insulin (Sigma-Aldrich, cat. I6634). The K86415-001-R-J1-PDC line was cultured in 6D media, which includes all 6C/Colon 1B media components minus the L-WRN conditioned media. The 485176-168-R4-J1-PDC was cultured in PANC media, which includes all 6C/Colon 1B media plus 100 ng/mL human FGF-10 (PeproTech, cat. 100-26), 500 nM SB-431542 (Selleckchem, cat. S1067), and 10 nM gastrin (Tocris Bioscience, cat. 3006). […]
# [1] = second compound 0.0316 µM, first compound 0.00316 µM
# [2] = second compound 0.0316 µM, first compound 0.01 µM
# [3] = second compound 0.0316 µM, first compound 0.0316 µM
# [4] = second compound 0.0316 µM, first compound 0.1 µM
# [5] = second compound 0.0316 µM, first compound 0.316 µM
# [6] = second compound 0.0316 µM, first compound 1 µM
# [7] = second compound 0.1 µM, first compound 0.00316 µM
# [8] = second compound 0.1 µM, first compound 0.01 µM
# [9] = second compound 0.1 µM, first compound 0.0316 µM
# [10] = second compound 0.1 µM, first compound 0.1 µM
# [11] = second compound 0.1 µM, first compound 0.316 µM
# [12] = second compound 0.1 µM, first compound 1 µM
# [13] = second compound 0.316 µM, first compound 0.00316 µM
# [14] = second compound 0.316 µM, first compound 0.01 µM
# [15] = second compound 0.316 µM, first compound 0.0316 µM
# [16] = second compound 0.316 µM, first compound 0.1 µM
# [17] = second compound 0.316 µM, first compound 0.316 µM
# [18] = second compound 0.316 µM, first compound 1 µM
# [19] = second compound 1 µM, first compound 0.00316 µM
# [20] = second compound 1 µM, first compound 0.01 µM
# [21] = second compound 1 µM, first compound 0.0316 µM
# [22] = second compound 1 µM, first compound 0.1 µM
# [23] = second compound 1 µM, first compound 0.316 µM
# [24] = second compound 1 µM, first compound 1 µM
# [25] = second compound 3.16 µM, first compound 0.00316 µM
# [26] = second compound 3.16 µM, first compound 0.01 µM
# [27] = second compound 3.16 µM, first compound 0.0316 µM
# [28] = second compound 3.16 µM, first compound 0.1 µM
# [29] = second compound 3.16 µM, first compound 0.316 µM
# [30] = second compound 3.16 µM, first compound 1 µM
# [31] = second compound 10 µM, first compound 0.00316 µM
# [32] = second compound 10 µM, first compound 0.01 µM
# [33] = second compound 10 µM, first compound 0.0316 µM
# [34] = second compound 10 µM, first compound 0.1 µM
# [35] = second compound 10 µM, first compound 0.316 µM
# [36] = second compound 10 µM, first compound 1 µM
# 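Note: spheroids exposed to agents for one week before readout.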
structure (smiles),measurement,setting,value
C=CC(=O)Nc1cc(Nc2nccc(-c3cn(C)c4ccccc34)n2)c(OC)cc1N(C)CCN(C)C + C#Cc1c(F)ccc2cc(O)cc(-c3ncc4c(N5CC6CCC(C5)N6)nc(OCC56CCCN5CC(F)C6)nc4c3F)c12,IC50,second compound 0.0316 µM,> 1000 nM
same,IC50,second compound 0.1 µM,> 1000 nM
same,IC50,second compound 0.316 µM,> 1000 nM
same,IC50,second compound 1 µM,> 1000 nM
same,IC50,second compound 3.16 µM,> 1000 nM
same,IC50,second compound 10 µM,> 1000 nM
same,"viability, T/C",[1],95.4%
same,"viability, T/C",[2],107%
same,"viability, T/C",[3],108%
same,"viability, T/C",[4],106%
same,"viability, T/C",[5],113%
same,"viability, T/C",[6],94.3%
same,"viability, T/C",[7],108%
same,"viability, T/C",[8],102%
same,"viability, T/C",[9],102%
same,"viability, T/C",[10],102%
same,"viability, T/C",[11],119%
same,"viability, T/C",[12],97.7%
same,"viability, T/C",[13],103%
same,"viability, T/C",[14],108%
same,"viability, T/C",[15],106%
same,"viability, T/C",[16],106%
same,"viability, T/C",[17],108%
same,"viability, T/C",[18],102%
same,"viability, T/C",[19],105%
same,"viability, T/C",[20],99.4%
same,"viability, T/C",[21],101%
same,"viability, T/C",[22],115%
same,"viability, T/C",[23],101%
same,"viability, T/C",[24],95.3%
same,"viability, T/C",[25],107%
same,"viability, T/C",[26],100%
same,"viability, T/C",[27],106%
same,"viability, T/C",[28],102%
same,"viability, T/C",[29],87.5%
same,"viability, T/C",[30],95%
same,"viability, T/C",[31],106%
same,"viability, T/C",[32],95.1%
same,"viability, T/C",[33],89.1%
same,"viability, T/C",[34],94%
same,"viability, T/C",[35],81.4%
same,"viability, T/C",[36],79.2%
CC(Nc1ccc2c(c1)OCCn1cc(N3C(=O)OCC3C(F)F)nc1-2)C(N)=O (stereo unspecified) + C#Cc1c(F)ccc2cc(O)cc(-c3ncc4c(N5CC6CCC(C5)N6)nc(OCC56CCCN5CC(F)C6)nc4c3F)c12,IC50,second compound 0.0316 µM,4900 nM
same,IC50,second compound 0.1 µM,3940 nM
same,IC50,second compound 0.316 µM,4320 nM
same,IC50,second compound 1 µM,4490 nM
same,IC50,second compound 3.16 µM,4630 nM
same,IC50,second compound 10 µM,2910 nM
same,"viability, T/C",[3],97.5%
same,"viability, T/C",[4],88.9%
same,"viability, T/C",[5],80.2%
same,"viability, T/C",[6],69.6%
same,"viability, T/C","second compound 0.0316 µM, first compound 3.16 µM",60.4%
same,"viability, T/C","second compound 0.0316 µM, first compound 10 µM",37.4%
same,"viability, T/C",[9],107%
same,"viability, T/C",[10],82.7%
same,"viability, T/C",[11],84.6%
same,"viability, T/C",[12],62.7%
same,"viability, T/C","second compound 0.1 µM, first compound 3.16 µM",56.7%
same,"viability, T/C","second compound 0.1 µM, first compound 10 µM",37%
same,"viability, T/C",[15],110%
same,"viability, T/C",[16],88.9%
same,"viability, T/C",[17],73.9%
same,"viability, T/C",[18],71.2%
same,"viability, T/C","second compound 0.316 µM, first compound 3.16 µM",55.1%
same,"viability, T/C","second compound 0.316 µM, first compound 10 µM",38.8%
same,"viability, T/C",[21],96.3%
same,"viability, T/C",[22],90.3%
same,"viability, T/C",[23],78.5%
same,"viability, T/C",[24],64.5%
same,"viability, T/C","second compound 1 µM, first compound 3.16 µM",60.3%
same,"viability, T/C","second compound 1 µM, first compound 10 µM",37%
same,"viability, T/C",[27],103%
same,"viability, T/C",[28],89.4%
same,"viability, T/C",[29],79.6%
same,"viability, T/C",[30],65.1%
same,"viability, T/C","second compound 3.16 µM, first compound 3.16 µM",64.8%
same,"viability, T/C","second compound 3.16 µM, first compound 10 µM",35.2%
same,"viability, T/C",[33],99.5%
same,"viability, T/C",[34],75.7%
same,"viability, T/C",[35],68.8%
same,"viability, T/C",[36],63%
same,"viability, T/C","second compound 10 µM, first compound 3.16 µM",66.5%
same,"viability, T/C","second compound 10 µM, first compound 10 µM",23.8%
O=C(c1ccc(F)c(F)c1Nc1ccc(I)cc1F)N1CC(O)([C@@H]2CCCCN2)C1 + C#Cc1c(F)ccc2cc(O)cc(-c3ncc4c(N5CC6CCC(C5)N6)nc(OCC56CCCN5CC(F)C6)nc4c3F)c12,IC50,second compound 0.0316 µM,> 1000 nM
same,IC50,second compound 0.1 µM,> 1000 nM
same,IC50,second compound 0.316 µM,> 1000 nM
same,IC50,second compound 1 µM,> 1000 nM
same,IC50,second compound 3.16 µM,> 1000 nM
same,IC50,second compound 10 µM,> 1000 nM
same,"viability, T/C",[1],119%
same,"viability, T/C",[2],102%
same,"viability, T/C",[3],102%
same,"viability, T/C",[4],81.9%
same,"viability, T/C",[5],77.9%
same,"viability, T/C",[6],58%
same,"viability, T/C",[7],110%
same,"viability, T/C",[8],107%
same,"viability, T/C",[9],91.5%
same,"viability, T/C",[10],92.8%
same,"viability, T/C",[11],82.3%
same,"viability, T/C",[12],57.1%
same,"viability, T/C",[13],108%
same,"viability, T/C",[14],104%
same,"viability, T/C",[15],94.9%
same,"viability, T/C",[16],84.7%
same,"viability, T/C",[17],74%
same,"viability, T/C",[18],62.9%
same,"viability, T/C",[19],105%
same,"viability, T/C",[20],116%
same,"viability, T/C",[21],87.9%
same,"viability, T/C",[22],93.7%
same,"viability, T/C",[23],77.7%
same,"viability, T/C",[24],58.1%
same,"viability, T/C",[25],110%
same,"viability, T/C",[26],103%
same,"viability, T/C",[27],92.8%
same,"viability, T/C",[28],86.5%
same,"viability, T/C",[29],75.7%
same,"viability, T/C",[30],62.9%
same,"viability, T/C",[31],102%
same,"viability, T/C",[32],84.4%
same,"viability, T/C",[33],82.8%
same,"viability, T/C",[34],85.6%
same,"viability, T/C",[35],78.9%
same,"viability, T/C",[36],63.8%

# Reference: PubChem BioAssay AID2060894 (Molecular Pharmacology Branch, DTP, NCI, 2025)
